# Measurements taken from US20150266920A1, “MACROCYCLIC KETOAMIDE IMMUNOPROTEASOME INHIBITORS” (HOFF-MANN-LA ROCHE INC., priority 2012, published 2015).
# Tests used:
# β 5i = target: T1, β 5i (Homo sapiens, UniProt P20618+P28062); assay: Cell-Based Proteasome Activity/Selectivity Assay, Ramos cells, substrate (ANW)2Rh110; settings: β5i substrate (ANW)2Rh110, read-out: Ic50 ramos: ac-(anw)2-r110
# T1 construct: protease activity associated with the proteasome complex in cultured cells; endogenous in cells; host or cells: Ramos cells
# From the text: (§1) Cell-Based Proteasome Activity/Selectivity Assay
# (§2) The Cell-Based Proteasome subunit activity/selectivity assay was a panel of 5 fluorogenic assays that independently measured the activity of β5c or β 5i (chymotrypsin-like activity), β2c/2i (trypsin-like), and β 1c or β 1i (caspase-like) protease activity associated with the proteasome complex in cultured cells. Specifically, the following substrates were used for respective subunit activities: β 1i: (PAL)2Rh110, β 1c: (LLE)2 Rh110, β2c/2i: (KQL)2Rh110, β 5c: (WLA)2Rh110, β 5i: (ANW)2Rh110. The following procedure was followed:
# (§3) Cell preparation: Plated 25 μl of Ramos cells (2×10^6/ml in DPBS) into half area plate (PerkinElmer Cat 6005569) to final 5×10^4 cells/well. Added 0.5 μl of 100×4-fold serial diluted test compounds or DMSO to each well. Highest concentration of compound tested was 20 thus compound serial dilution started from […]. Incubated for 30 minutes at 37° C. Then equilibrated at room temperature for 15 minutes. Added 25 μl of 2× reaction mix consisting of 0.025% digitonin, 20 μM of each substrates and 0.5M sucrose in DPBS. Shaked for one minute @ 700 rpm. Incubated for […] at room temperature. Then read the plates with an Envision multilabel plate reader (PerkinElmer) with 500 nm excitation/519 nm emission.
# β 5c = target: T2, β 5c (Homo sapiens, UniProt P20618+P28074); assay: Cell-Based Proteasome Activity/Selectivity Assay, Ramos cells, substrate (WLA)2Rh110; settings: β5c substrate (WLA)2Rh110
# T2 construct: protease activity associated with the proteasome complex in cultured cells; endogenous in cells; host or cells: Ramos cells
# From the text: as §1, §2, §3
# β2c/2i = assay: Cell-Based Proteasome Activity/Selectivity Assay, Ramos cells, substrate (KQL)2Rh110; settings: β2c/2i substrate (KQL)2Rh110
# From the text: as §1, §2, §3
# β 1i = target: T3, β 1i (Homo sapiens, UniProt P28065+P40306); assay: Cell-Based Proteasome Activity/Selectivity Assay, Ramos cells, substrate (PAL)2Rh110; settings: β1i substrate (PAL)2Rh110
# T3 construct: protease activity associated with the proteasome complex in cultured cells; endogenous in cells; host or cells: Ramos cells
# From the text: as §1, §2, §3
# β 1c = target: T4, β 1c (Homo sapiens, UniProt P28072+Q99436); assay: Cell-Based Proteasome Activity/Selectivity Assay, Ramos cells, substrate (LLE)2 Rh110; settings: β1c substrate (LLE)2 Rh110
# T4 construct: protease activity associated with the proteasome complex in cultured cells; endogenous in cells; host or cells: Ramos cells
# From the text: as §1, §2, §3
# IP 10 level = assay: PBMC IP-10 Assay; assay type: cell-based; settings: Homo sapiens, PBMCs stimulated with CpG Type A, assay not named in the column head
# Description: PBMCs were isolated from whole blood as follows: Blood was collected in a sterile environment in heparinized tubes. Blood was diluted with an equal volume PBS/2% FCS and 30 ml of this mixture was added to ACCUSPIN tubes containing 15 ml Histopaque-1077 already centrifuged at 800 g for 30 seconds and warmed up at room temperature. The tubes were then centrifuged at 800 g for 20 minutes at room temperature with no brake. The mononuclear band, just above the polyethylene frit, was removed by Pasteur pipet. These mononuclear cells were washed three times with sterile PBS, counted, and resuspended in RPMI 1640 supplemented with 10% heat inactivated fetal calf serum, 10 mM HEPES, 1 mM sodium pyruvate, penicillin (50 U/ml), streptomycin (50 μg/ml) and glutamine (2 mM) to approximately 1.5×10^6/ml. […] PBMC viability of cells remaining in the well was measured with ATPlite luminescence assay (Perkin-Elmer) per the manufacturer's instructions. Luminescence was measured on the Perkin-Elmer Envision, using the luminescence filter. IP 10 level was measured with CXCL10/IP10 AlphaLISA kit (Perkin-Elmer) per the manufacturer's instructions, except halving all volumes. Fluorescence was measured on the Envision Multilabel plate reader, using the AlphaScreen standard settings.
# LMP7 [1] = target: T5, LMP7 (Mus musculus, UniProt O09061+P28063); settings: mouse CAIA and CIA arthritis models; cited from earlier work
# LMP7 [2] = target: T5, LMP7; settings: MRL/lpr lupus-prone mice; cited from earlier work
# LMP7 [3] = target: T5, LMP7; settings: DSS-induced colitis model in mice; cited from earlier work
SMILES,IC50 (β 5i) [µM],IC50 (β 5c) [µM],IC50 (β2c/2i) [µM],IC50 (β 1i) [µM],IC50 (β 1c) [µM],EC50 (IP 10 level) [µM],disease score (LMP7 [1]),disease progression (LMP7 [2]),plasma cells numbers and levels of anti-dsDNA IgG (LMP7 [2]),inflammation and tissue destruction (LMP7 [3])
"C[C@@H]1NC(=O)CCc2cccc(c2)-c2cccc(c2)CC[C@@H](C(=O)N[C@@H](Cc2ccccc2)C(=O)C(=O)NCc2ccccc2)NC1=O [Example 1, (9S,12S)-12-Methyl-11,14-dioxo-10,13-diaza-tricyclo[15.3.1.1^2,6]docosa-1(20),2(22),3,5,17(21),18-hexaene-9-carboxylic acid ((S)-1-benzyl-2-benzylcarbamoyl-2-oxo-ethyl)-amide]",0.019,0.353,> 20,1.97,> 20,0.347,–,–,–,–
COc1ccc(C[C@H](NC(=O)[C@H](C)NC(=O)CN2CCOCC2)C(=O)N[C@@H](Cc2ccccc2)C(=O)[C@@]2(C)CO2)cc1 [PR-957],–,–,–,–,–,–,significantly decrease disease score,prevented disease progression,reduced plasma cells numbers and levels of anti-dsDNA IgG,reduced inflammation and tissue destruction
